# Non-standard residues stand in square brackets, D forms with d. No end group written: not given here. Ado = 8-amino-2,4-dioxa octanoic acid
# Columns and labels:
# [1] = test system: 18D12 monoclonal antibody (anti-His tag); assay: Indirect ELISA on plates coated with Bitag peptide, detection with anti-His tag antibody; type: binding, mouse
# Experimental: (§1) Enzyme Linked Immuno-Sorbant Assays (ELISA). After overnight sensitization with peptides diluted at 5 μg/mL in PBS buffer, pH 7.4 (Euromedex, Souffelweyersheim, France), Nunc 96-well plates (Thermofisher) were saturated for 1 h at room temperature (RT) with PBS1x-Bovine Serum Albumin 5% (BSA, Sigma-Aldrich, Saint Louis, MI, USA). After 4 washes with PBS1x-Tween20 0.1%, PBS1x-BSA 1% buffer containing the anti-tag antibody (at 1 μg/mL) was added and incubated for 1 h at 37° C. The developing with PNPP substrates (Thermofisher) was performed after 30 min of incubation at 37° C. with a 1/50 000 dilution in PBS-BSA-0.5% of an alkaline phosphatase (AP)-labeled streptavidin (Jackson Immunoresearch, Ely, UK). The absorbance level (optical density, OD) was red at 405 nm (OD405) using an Infinite M Nano+ microplate reader (Tecan, Mannedorf, Switzerland). All samples were tested in duplicate and in three independent experiments.
# (§2) Selection and validation of the Bitag peptides and the proximity probes. First, to check that the anti-tag antibodies do bind to their epitopes in the context of the Bitag peptides, indirect ELISA was performed by sensitizing multiwall plates with either Bitag 1 or Bitag 2 peptides at two concentrations (1 μg/mL and 5 μg/mL). For the two coated peptides, 18D12 monoclonal antibody (anti-His tag) or 2G4 and 5F12 monoclonal antibodies (anti-Lys tag) were used for detection with an AP-labelled anti-mouse conjugate.
# [2] = test system: 2G4 monoclonal antibody (anti-Lys tag); assay: Indirect ELISA on plates coated with Bitag peptide, detection with anti-Lys tag antibody 2G4; type: binding, mouse
# Experimental: as §1, §2
# [3] = test system: 5F12 monoclonal antibody (anti-Lys tag); assay: Indirect ELISA on plates coated with Bitag peptide, detection with anti-Lys tag antibody 5F12; type: binding, mouse; conditions: 5 μg versus 1 μg of peptide
# Experimental: as §1
# Selection and validation of the Bitag peptides and the proximity probes. First, to check that the anti-tag antibodies do bind to their epitopes in the context of the Bitag peptides, indirect ELISA was performed by sensitizing multiwall plates with either Bitag 1 or Bitag 2 peptides at two concentrations (1 μg/mL and 5 μg/mL). […]
# [4] = test system: internal control proximity probes (18D12 anti-His tag and 2G4 anti-Lys tag antibodies coupled to MML or MMC oligonucleotides); assay: Dual-recognition immunoassay (PEA) of Bitag peptide spiked in PBS-BSA buffer, qPCR readout; type: binding, mouse; conditions: for Delta-Ct0-50: 0 vs 50 ng/mL peptide
# Experimental: Proximity probes. Proximity probes were prepared by covalently linking purified PCT monoclonal antibodies to HPLC-purified oligonucleotides. […] Synthesis, modifications and HPLC-purification of the oligonucleotides were all performed by Integrated DNA Technologies (Louvain, Belgium). Antibody-oligonucleotide conjugates were generated using commercial Thunderlink kit (Abcam, Cambridge, UK), following the manufacturer's instructions, using a 5:1 oligonucleotide-to-antibody ratio. Conjugation quality was checked by running conjugates on a reducing 4-12% SDS-PAGE (Thermofisher, Waltham, MA, USA) followed by Coomassie Blue staining (Thermofisher) as recommended by the supplier's instructions (Abcam).
# (§3) Proximity Extension Assay (PEA™). The Proximity extension assay protocol and the different buffers were taken over from the protocol initially described by Lundberg et al. and also from a recently developed shorter protocol (unpublished results). Proximity extension assay was performed in specific multi-well plates (Hard-Shell 96-Well Clear shell PCR Plates, BioRad, Hercule, CA, USA), in triplicate. Briefly, 5 μL of sample (PBS1x-0.1% BSA buffer or human EDTA plasma with or without rPCT and/or IC peptide) were mixed with 5 μL of a mix of the two PEA™ conjugates (500 pM each) diluted in the probe incubation buffer and incubated at 37° C. for 60 min. After probe incubation, a dilution buffer containing 40 mM of each dNTP were added. After a 5 minutes incubation step at 37° C., 96 μl extension mix containing 26 U/mL of T4 DNA Polymerase (Thermofisher) were added and incubated at 37° C. for an additional 3 minutes, followed by a heat inactivation step at 80° C.
# (§4) Detection by qPCR. For qPCR detection, 4 μL of extension products were transferred to a qPCR plate and mixed with 36 μL of qPCR mix (SYBRGREEN mix, Bio-Rad) containing 0.6 μM of each PCR primer. A one-step qPCR was run with initial denaturation at 95° C. for 3 min, followed by 1 sec of denaturation at 95° C. and 10 sec annealing/extension at 63° C. for 40 cycles. Finally, a melt step was performed by increasing the temperature gradually from 60° C. to 95° C. at 0.5° C./sec.
# Second, to determine the best combination of spacer size and oligonucleotide length, proximity probes were tested successively on the two Bitag 1 and Bitag 2 peptides. The first type of probes, called MML, featured a longer version of the oligonucleotides (49 and 56 bases), whilst the second type of probes, called MMC, featured a shorter version of the oligonucleotides (29 and 31 bases). For both MML and MMC, the size of the complementary sequence located at the 3′-end of each oligonucleotide was 9 nucleotides.
# FIG. 2 summarizes the dual-recognition immunoassay results obtained for three concentrations of Bitag peptide (0, 5 and 50 ng/mL) spiked in PBS-BSA buffer.
# [5] = test system: internal control proximity probes MMC (18D12 and 2G4); assay: Dual-recognition immunoassay (PEA) of Bitag 2 peptide spiked in human plasma, MMC probes; type: binding, mouse; conditions: for loss of Delta-Ct in human plasma compared to PBS-BSA: pool of three plasma specimens
# Experimental: Whole blood specimens were obtained from healthy donors from the French National Blood Bank (EFS, Etablissement Français du Sang, Lyon, France). Samples were selected on the basis of a negative PCT test. Fresh blood was centrifuged for five min at 20 000 g, at 4° C., using a refrigerated microcentrifuge (Eppendorf 5424R, Montesson, France). After centrifugation, the supernatant, which corresponds to the plasma, was recovered for Dual-recognition immunoassay and stored at 4° C. before use. For all biological samples, informed consent was obtained for any experimentation. All experiments were performed in compliance with the relevant laws and institutional guidelines and in accordance with the ethical standards of the Declaration of Helsinki.
# as §3, §4
# In order to confirm these preliminary results obtained on peptide diluted in the PBS-BSA buffer, PEA™ was performed, using MMC probes, on human plasma (pool of three plasma specimens) spiked with four concentrations of Bitag 2 peptide, from 0 to 500 ng/mL. The results are illustrated in FIG. 3a. Overall, while the assay presented a similar dynamic to that obtained in PBS-BSA buffer, Delta-Ct values appeared to be slightly lower compared to those obtained in PBS-BSA (loss of 0.26 and 0.36 for 5 ng/mL and 50 ng/mL of peptide, respectively). In addition, for 500 ng/mL, a significant loss of dynamic was observed (Delta-Ct50-500 of 0.9 versus Delta-Ct5-50 of 2.72).
# Third, a Bitag 2 concentration suitable for internal control Dual-recognition immunoassay had to be chosen. […] To confirm the specificity of the results obtained with 50 ng/mL of Bitag 2 peptide, human plasma specimens were tested by Dual-recognition immunoassay after addition of 50 ng/mL of peptide (n=25 samples) or without peptide complementation (n=13 samples). According to a Mann-Whitney test, the difference between the two groups was significant (P<0.001).
# procalcitonin (rPCT) [6] = assay: Interference of Bitag 2 peptide with procalcitonin dual-recognition immunoassay in PBS-BSA buffer; set-up: species or system human
# Experimental: as §3, §4
# Interference between procalcitonin and internal control. […] The results are illustrated in FIG. 4. For 0.1 ng/mL of rPCT, no significant difference was observed across the range of peptide concentrations added to the sample (mean=34.38±0.15).
# procalcitonin (rPCT) [7] = assay: Procalcitonin and internal control DRI in parallel in PBS-BSA, PCR with primers specific of the PCT DRI probes; set-up: species or system human; conditions: 0 ng/mL PCT, PCT primer set
# Experimental: as §3
# (§5) Detection by qPCR. For qPCR detection, 4 μL of extension products were transferred to a qPCR plate and mixed with 36 μL of qPCR mix (SYBRGREEN mix, Bio-Rad) containing 0.6 μM of each PCR primer. A one-step qPCR was run with initial denaturation at 95° C. for 3 min, followed by 1 sec of denaturation at 95° C. and 10 sec annealing/extension at 63° C. for 40 cycles. […]
# [8] = test system: internal control proximity probes; assay: Procalcitonin and internal control DRI in parallel in PBS-BSA, PCR with internal control primer set; set-up: species or system mouse; conditions: rPCT 0 or 0.1 ng/mL; peptide 0 to 160 ng/mL
# Experimental: as §3, §5
# [9] = test system: internal control proximity probes; assay: Internal control dual-recognition immunoassay in human plasma specimens spiked with rPCT and Bitag peptide; type: binding, mouse; conditions: Bitag peptide at 50 ng/mL
# Experimental: as §3, §5
sequence,measurement,setting,value
"MRGSHHHHHHNNGKKKKKKSV (MRGSHHHHHH[Ado][Ado]GKKKKKKSV-NH2) [Bitag 1, His tag and Lys tag separated by two Ado spacers; N is 8-amino-2,4-dioxa octanoic acid]",OD405,"[1]; 1 μg of Bitag 1 peptide, detection with 18D12",0.617
same,increase of OD405 for 5 μg of peptide,"[1]; 5 μg versus 1 μg of peptide, 18D12",+0.262
same,signal in the presence of peptide relative to signal without peptide,"[1]; 18D12 antibody, 1 μg of Bitag 1",5.42 times
same,OD405,"[2]; 1 μg of Bitag 1 peptide, detection with 2G4",0.993
same,increase of OD405 for 5 μg of peptide,"[2]; 5 μg versus 1 μg of peptide, 2G4",+0.089
same,signal in the presence of peptide relative to signal without peptide,"[2]; 2G4 antibody, 5 μg of Bitag 1",9.17 times
same,increase of OD405 for 5 μg of peptide,[3],+0.074
same,Delta-Ct for MMC compared with MML probes,[4]; PBS-BSA buffer,higher
"MRGSHHHHHHNNNGKKKKKKSV (MRGSHHHHHH[Ado][Ado][Ado]GKKKKKKSV-NH2) [Bitag 2, His tag and Lys tag separated by 3 Ado spacers; N is 8-amino-2,4-dioxa octanoic acid]",gain in Delta-Ct for MMC versus MML,"[4]; 5 ng/mL of peptide, PBS-BSA buffer",2.32
same,gain in Delta-Ct for MMC versus MML,"[4]; 50 ng/mL of peptide, PBS-BSA buffer",1.86
same,Delta-Ct0-50,"[4]; MMC probes, PBS-BSA buffer",7.08
same,Delta-Ct0-50,"[4]; MML probes, PBS-BSA buffer",5.22
same,"Delta-Ct of the combination of MMC oligonucleotides and peptide, compared with the other combinations","[4]; peptide concentrations tested (5 and 50 ng/mL), PBS-BSA",highest Delta-Ct
same,loss of Delta-Ct in human plasma compared to PBS-BSA,"[5]; 5 ng/mL of peptide, MMC probes",0.26
same,loss of Delta-Ct in human plasma compared to PBS-BSA,"[5]; 50 ng/mL of peptide, MMC probes",0.36
same,Delta-Ct5-50,"[5]; human plasma, 5 vs 50 ng/mL peptide, MMC probes",2.72
same,Delta-Ct50-500,"[5]; human plasma, 50 vs 500 ng/mL peptide, MMC probes",0.9
same,dynamic range of detection,[5]; short (MMC) oligonucleotides,about 3 orders of magnitude
same,Ct of procalcitonin DRI,"procalcitonin (rPCT) [6]; 0 ng/mL rPCT, 160 ng/mL of peptide",35.9
same,"Ct of procalcitonin DRI, average value for the other peptide concentrations","procalcitonin (rPCT) [6]; 0 ng/mL rPCT, peptide concentrations other than 160 ng/mL",36.98
same,"Ct of procalcitonin DRI, mean across the range of peptide concentrations","procalcitonin (rPCT) [6]; 0.1 ng/mL rPCT, Bitag 2 from 0 to 200 ng/mL",34.38±0.15
same,Delta-Ct between sample with 40 ng of peptide and sample without peptide (background noise),procalcitonin (rPCT) [7],1.4
same,interference of procalcitonin on Ct with internal control PCR primer set,[8],no interference
same,Ct mean value for the internal control,[9]; 0 ng/mL of PCT,33.53±0.11
same,Ct mean value for the internal control,[9]; 10 ng/mL of PCT,34.23±0.40
"MRGSHHHHHHSVDESNNNGKKKKKKSVDESL (MRGSHHHHHHSVDES[Ado][Ado][Ado]GKKKKKKSVDESL-NH2) [Bitag 2′, long His tag and long Lys tag, three spacer units; N is 8-amino-2,4-dioxa octanoic acid]",results obtained with Bitag 2 peptide repeated with this peptide,[4]; data not shown,reproduced and confirmed
